Measured values: paper PMC9916441, “Resveratrol Derivative Exhibits Marked Antiproliferative Actions, Affecting Stemness in Pancreatic Cancer Cells” (International Journal of Molecular Sciences, 2023)

Legend:
AsPC-1 [1] = assay: Colony formation assay; format: cell-based, human; conditions: AsPC-1, 20 µM, 72 h treatment
Protocol: (§1) A colony formation assay was performed as previously described. Briefly, the PC cells were seeded in 6-well plates, incubated for 24 h, and then treated for 72 h with 20 μM DF5, DF12, and RSV or with vehicle (DMSO) as indicated. After 4 days, following methanol fixation and crystal violet staining, the colonies of at least 30 cells were counted.

Capan-2 [2] = assay: Colony formation assay; format: cell-based, human; conditions: Capan-2, 20 µM, 72 h treatment
Protocol: as §1

BxPC-3 [3] = assay: Colony formation assay; format: cell-based, human; conditions: BxPC-3, 20 µM, 72 h treatment
Protocol: as §1

AsPC-1 [4] = assay: MTT cell viability assay; format: cell-based, human; conditions: for IC50: Homo sapiens, ASPC1, AsPC-1, MTT, 72 h
Protocol: (§2) The cell viability was assessed using MTT assay, as previously described. Briefly, the cells were seeded in 96-well plates (4 × 10^3 cells/well) and were treated for 72 h with different concentrations of RSV, DF5, and DF12. The IC50 values were extrapolated from dose–response curves and calculated using the CompuSyn software (https://www.combosyn.com/). The selectivity index (SI) values were calculated as ratios between the IC50 values of compounds in normal HFF-1 fibroblast cells and the IC50 values of the same compounds in the PC cell lines.

Capan-2 [5] = assay: MTT cell viability assay; format: cell-based, human; conditions: for IC50 / viability at 50 µM: Homo sapiens, Capan-2, MTT; for IC50: 72 h; for viability at 50 µM: plateau reached already at 50 µM, read-out: residual viability
Protocol: as §2

BxPC-3 [6] = assay: MTT cell viability assay; format: cell-based, human; conditions: for IC50: Homo sapiens, BxPC-3, MTT, 72 h
Protocol: as §2

cyclin B1/CDK1 complex = assay: Western blot of cyclin B1, Cdc2/Cdk1 and p-Cdc2 (Thr161) in PC cell lines; format: cell-based, human; conditions: 50 μM, BxPC-3
Protocol: (§3) The PC cell lines treated with 50 μM DF5, RSV, or with vehicle (DMSO) were lysed in a cell lysis buffer containing PMSF, protease inhibitors cocktails, and phosphatase inhibitors. The protein lysate quantification and immunoblot analyses were performed as previously described.

[7] = system: AsPC-1, BxPC-3 and Capan-2 PC cell lines; assay: Cell cycle analysis by flow cytometry; format: cell-based, human; conditions: 50 μM, 24 h
Protocol: To perform the cell cycle analysis, the PC cells (3 × 10^5) were collected, fixed in 70% cold ethanol, and kept at 4 °C overnight. The collected cells were incubated at 4 °C overnight in 5 μg/mL PI (final concentration) and 100 μg/mL RNAse (final concentration). The cell cycle profiles were analyzed as previously described.

[8] = system: normal HFF-1 fibroblast cells; assay: MTT cell viability assay on normal fibroblasts; format: cell-based, human; conditions: 72 h
Protocol: as §2

Cyclin D3 = assay: Western blot of cyclin D3 in PC cell lines; format: cell-based, human; conditions: 50 μM
Protocol: as §3

AsPC-1 [9] = assay: Flow cytometry immunophenotyping of CD133+EpCAM+ cancer stem-like subpopulation; format: cell-based, human; conditions: AsPC-1, 20 μM, 72 h
Protocol: (§4) The expression of CD133 and EpCAM surface antigens was evaluated using flow cytometry. Briefly, the PC cells were seeded in 6-well plates and treated for 72 h with 20 μM DF5, RSV, or with vehicle (DMSO). After treatment, the cells were collected in PBS and stained at room temperature in the dark for 30 min with PE-CD133, FITC-EpCAM antibodies, and Reactive Dye. After labeling, the samples were washed in PBS by centrifugation at 1500 rpm for 10 min, to remove excess antibodies. Flow cytometer performance, stability, and data reproducibility were daily checked by using the CS&T quality control Module (BD Biosciences). The gating strategy and the evaluation of non-specific fluorescence was determined using fluorescence minus one (FMO) controls. The data were acquired with FACSVerse analyzer equipped with a volumetric count module (BD Biosciences, San Jose, CA, USA) and are expressed as the percentage of positive cells.

Capan-2 [10] = assay: as above; format: cell-based, human; conditions: Capan-2, 20 μM, 72 h
Protocol: as §4

BxPC-3 [11] = assay: as above; format: cell-based, human; conditions: BxPC-3, 20 μM, 72 h
Protocol: as §4

p-SER^139H2AX = assay: Western blot of phospho-H2AX (γH2AX) in PC cell lines; format: cell-based, human
Protocol: as §3

[12] = system: AsPC-1, BxPC-3 and Capan-2 PC cell lines; assay: Cell growth, trypan blue exclusion test; format: cell-based, human; conditions: 50 μM, counted at 24, 48 and 72 h, three PC cell lines, vs control
Protocol: The cell counting was performed using the trypan blue exclusion test. Briefly, PC cells were seeded in 24-well plates (5 × 10^4 cells/well) and then were treated with 50 μM of DF5, RSV, or with vehicle and counted at 24, 48, and 72 h.

[13] = system: poly-(ADP-ribose) polymerase (PARP); assay: Western blot of PARP cleavage in PC cell lines; format: cell-based, human; conditions: vs untreated cells
Protocol: as §3

AsPC-1 [14] = assay: Apoptosis assay, annexin-V staining by flow cytometry; format: cell-based, human; conditions: 24 h
Protocol: (§5) The apoptosis assay was performed essentially as previously described. the analyses were performed using a CytoFLEX flow cytometer, using the FL1 detector in linear mode and the CytoExpert software (Beckmann Coulter, Milano, Italy).

Capan-2 [15] = assay: as above; format: cell-based, human; conditions: 24 h
Protocol: as §5

BxPC-3 [16] = assay: as above; format: cell-based, human; conditions: 24 h
Protocol: as §5

[17] = design: method as in PMID 25224342; conditions: based on solubility of ref 43; cited from earlier work

Oc1ccc(/C=C/c2ccc3ccccc3c2)cc1 [DF12]
effect on clonogenicity (colony formation) (AsPC-1 [1]): relevant effects on clonogenic capacity | effect on clonogenicity (colony formation) (Capan-2 [2]): marginal effects | effect on clonogenicity (colony formation) (BxPC-3 [3]): relevant effects on clonogenic capacity | IC50 (AsPC-1 [4]): 11.1 µM | IC50 (Capan-2 [5]): 58.1 µM | viability at 50 µM (Capan-2 [5]): > 50% | IC50 (BxPC-3 [6]): 18.3 µM

Oc1ccc(/C=C/c2cc(O)cc(O)c2)cc1 [RSV, 3,5,4′-trihydroxy-trans-stilbene, reference compound]
effect on clonogenicity (colony formation) (AsPC-1 [1]): significantly, but modestly, affected clonogenic activity | effect on clonogenicity (colony formation) (Capan-2 [2]): significantly, but modestly, affected clonogenic activity | effect on clonogenicity (colony formation) (BxPC-3 [3]): significantly, but modestly, affected clonogenic activity | effect on expression of the cyclin B1/CDK1 complex (cyclin B1/CDK1 complex): much less evident | effect on cells in G0/G1 phase ([7]; across the three PC cell lines, vs untreated cells): statistically significant accumulation of cells at the G0/G1 phase | effect on cells in G2/M phase ([7]; three PC cell lines, in Capan-2 it did not reach statistical significance): drastic depletion of cells in the G2/M phase | toxicity against normal HFF-1 fibroblast cells ([8]; up to 100 μM): negligible toxicity | IC50 ([8]; Homo sapiens, normal HFF-1 fibroblasts, 100 μM highest concentration used): > 100 µM | IC50 (AsPC-1 [4]): 29 µM | Selectivity Index (SI) AsPC-1 (AsPC-1 [4]; SI = IC50 on normal HFF-1 fibroblast cells/IC50 on AsPC-1): > 3.45 | IC50 (Capan-2 [5]): > 100 µM | viability at 50 µM (Capan-2 [5]): > 50% | Selectivity Index (SI) Capan-2 (Capan-2 [5]; SI = IC50 on normal HFF-1 fibroblast cells/IC50 on Capan-2): > 1.00 | IC50 (BxPC-3 [6]): 48.7 µM | Selectivity Index (SI) BxPC-3 (BxPC-3 [6]; SI = IC50 on normal HFF-1 fibroblast cells/IC50 on BxPC-3): > 2.05 | effect on cyclin D3 expression (Cyclin D3): present but less marked | effect on percentage of CD133+EpCAM+ cancer stem-like subpopulation (AsPC-1 [9]): did not affect this subpopulation | effect on percentage of CD133+EpCAM+ cancer stem-like subpopulation (Capan-2 [10]): did not affect this subpopulation | effect on percentage of CD133+EpCAM+ cancer stem-like subpopulation (BxPC-3 [11]): more marked effect | activation (phosphorylation) of H2AX (p-SER^139H2AX; AsPC-1, 50 μM): increased H2AX phosphorylation | activation (phosphorylation) of H2AX (p-SER^139H2AX; BxPC-3, 50 μM): to a lesser extent | activation (phosphorylation) of H2AX (p-SER^139H2AX; Capan-2, 50 μM): no activation of H2AX | effect on cell growth (cell number) [12]: significantly, drastically, and comparably affected cell growth | effect on cleaved:uncleaved PARP ratio ([13]; AsPC-1, 50 μM): affected the PARP cleavage ratio | effect on cleaved:uncleaved PARP ratio ([13]; BxPC-3, 50 μM): small | effect on cleaved:uncleaved PARP ratio ([13]; Capan-2, 50 μM): negligible | apoptosis induction (Annexin V+ cells) (AsPC-1 [14]; AsPC-1, 20 μM): statistically significant apoptosis | apoptosis induction (Annexin V+ cells) (AsPC-1 [14]; AsPC-1, 50 μM): significant but less marked increment of apoptotic cells | apoptosis induction (Annexin V+ cells) (Capan-2 [15]; Capan-2, 20 μM): statistically significant apoptosis | apoptosis induction (Annexin V+ cells) (Capan-2 [15]; Capan-2, 50 μM): significant but less marked increment of apoptotic cells | apoptosis induction (Annexin V+ cells) (BxPC-3 [16]; BxPC-3, 20 μM): neither compound affected apoptosis | apoptosis induction (Annexin V+ cells) (BxPC-3 [16]; BxPC-3, 50 μM): significant but less marked increment of apoptotic cells | Classification (water solubility) [17]: PI (PI (Practically Insoluble))
